Source: patent US5656660A, “Compositions and methods for treating mast-cell mediated conditions” (Arris Pharmaceutical Corporation, priority 1995, dated 1997)

Legend:
[1] = target: tryptase; assay: In vitro tryptase inhibition assay; type: biochemical, human; conditions: tosyl-Gly-Pro-Lys-p-nitroanilide 0.5 mM; 1 h preincubation at room temperature; pH 8.2
Protocol: The compounds to be assayed (approximately 1 mg) were dissolved in 200 μL dimethylsulfoxide (DMSO) and diluted 1:10 into buffer containing 50 millimolar (mM) Tris-HCl (pH 8.2), 100 mM sodium chloride, and 0.05% polyoxyethylenesorbitan monolaurate (Tween-20°, available from Sigma, St. Louis, Mo.). Seven additional threefold dilutions were made from the initial dilution into the same buffer supplemented with 10% DMSO. Aliquots (50 microliters, μL) from each of the eight dilutions in the series were transferred to individual wells in a 96-well U-bottom microtiter plate. […] The tryptase solution was prepared by placing 60 μg/mL of tryptase into solution with 10 mM MES (2-[N-Morpholino]ethane sulfonic acid) containing 2 mM CaCl2, 20% glycerol and 50 μg/mL heparin. The enzyme reaction was initiated with the addition of the synthetic tripeptide substrate, tosyl-Gly-Pro-Lys-p-nitroanilide (available from Sigma, 25 μL; 0.5 mM final concentration). […] Initial velocity measurements calculated from the progress curves by a kinetic analysis program (BatchKi; Petr Kuzmic, University of Wisconsin, Madison, Wis.) were used to determine apparent inhibition constants for each inhibitor.

[2] = test system: antigen-challenged sheep; assay: Allergic sheep model of asthma, aerosol: Specific Lung Resistance (SRL) after antigen challenge; type: in vivo; conditions: aerosol 0.5 h before, 4 h after and 24 h after challenge, n=6; for early response to antigen challenge (SRL): peak immediately post-challenge; for late response to antigen challenge (SRL): peak within 6-8 h
Protocol: The initial asthmatic response can be evaluated in guinea pigs, and dogs, and particularly, with a basenji-greyhound cross strain which develops nonspecific airway hyperresponsiveness to numerous nonallergenic substances, such as methacholine and citric acid. […] In dual responding animals, the initial asthmatic response (IAR) is followed by a late asthmatic response (LAR) at 6-8 hours post-exposure.
The allergic sheep model (see below) was used to evaluate the potential antiasthmatic effects of the compounds of the present invention.
(§1) The allergic sheep model of asthma was employed for the in vivo evaluation of the compounds of the invention as antiasthmatics. These methods have been published previously (see Abraham et al. (1983) Am. Rev. Respir. Dis. 128:839-844; Allegra et al. (1983) J. Appl. Physiol. 55:726-730; Russi et al. (1985) J. Appl. Physiol. 59:1416-1422; Soler et al. ((1989) J. Appl. Physiol. 67:406-413. Each sheep serves as its own control. Body weights for these animals ranged from 20-50 kilograms.
(§2) In these studies, […] of Compound 2 of the invention was dissolved in buffered saline and the total solution delivered as an aerosol 0.5 hours before, 4 hours after, and 24 hours after antigen challenge (total dose=27; n=6). […] The peak early response was taken as the average of the maximum values occurring immediately post-challenge. Peak late responses were calculated by averaging the maximum response values obtained for each animal within the 6-8 hour time period. This approach is conservative and eliminates the possible reduction in the late response due simply to averaging.

[3] = test system: antigen-challenged sheep; assay: Allergic sheep model of asthma: airway hyperresponsiveness (PC400, carbachol); type: in vivo; conditions: aerosol; for PC400, concentration of carbachol that causes a 400% increase in SRL / onset of hyperresponsiveness: 24 h after antigen challenge
Text: as §1, §2
Twenty-four hours after antigen challenge in both the control and drug trial, the sheep developed airway hyperresponsiveness. Airway hyperresponsiveness is expressed as PC400, the concentration of carbachol that causes a 400% increase in SRL; therefore, a decrease in PC400 indicates hyperresponsiveness. […] The number of breath units fell to 10±4 for those animals in the control group.

[4] = test system: antigen-challenged sheep; assay: Allergic sheep model of asthma, oral (intergastric tube): Specific Lung Resistance (SRL); type: in vivo
Text: as §1
Three doses of Compound 2 (40 mg in 60 mL water) were administered to sheep through an intergastric tube 1 hr before challenge, 4 hours post-challenge, and 24 hours post-challenge.

Compound | Ki [1] [nM] | early response to antigen challenge (SRL) [2] | late response to antigen challenge (SRL) [2] | PC400, concentration of carbachol that causes a 400% increase in SRL [3] [breath units] | onset of hyperresponsiveness [3] | improvement in airway function in antigen challenged sheep [3] | early phase SRL ([4]; 40 mg in 60 mL water by intergastric tube 1 h before, 4 h and 24 h post-challenge, untreated about 350) | late phase SRL ([4]; 40 mg in 60 mL water by intergastric tube 1 h before, 4 h and 24 h post-challenge, untreated over 150) | anti-asthmatic properties when delivered orally ([4]; 40 mg in 60 mL water, intergastric tube, three doses)
N=C(N)Nc1ccc(CNC(=O)CNC(=O)OCc2ccc(COC(=O)NCC(=O)NCc3ccc(NC(=N)N)cc3)cc2)cc1 [Example 2, N,N'-(4-Guanidylbenzylaminecarbonylmethylene)-1,4-benzenedimethanol dicarbamate] | 20 | statistically significant reduction in the early response | attenuated the late response | 24±6 | block the onset of hyperresponsiveness | statistically significant improvement in airway function | about 270 | about 70 | significant anti-asthmatic properties
NCc1ccc(CNC(=O)CCC(=O)NCc2ccc(CNC(=O)CCC(=O)NCc3ccc(CN)cc3)cc2)cc1 [Example 8, N,N'-bis(N-(4-aminomethylbenzyl)-succinamido)-p-xylylenediamide] | 3.45 | statistically significant early and late increases in SRL | statistically significant early and late increases in SRL | 15±10 | block the onset of hyperresponsiveness | statistically significant improvement in airway function | – | – | –
